Results published in the Kinase Knowledgebase extract (Sharma et al. 2016).

Target: PIK3CA (human) (UniProt P42336)
Assay: Cell-Based Assay
Details: bt20

Sequence of PIK3CA (human) (P42336 whole entry, looked up): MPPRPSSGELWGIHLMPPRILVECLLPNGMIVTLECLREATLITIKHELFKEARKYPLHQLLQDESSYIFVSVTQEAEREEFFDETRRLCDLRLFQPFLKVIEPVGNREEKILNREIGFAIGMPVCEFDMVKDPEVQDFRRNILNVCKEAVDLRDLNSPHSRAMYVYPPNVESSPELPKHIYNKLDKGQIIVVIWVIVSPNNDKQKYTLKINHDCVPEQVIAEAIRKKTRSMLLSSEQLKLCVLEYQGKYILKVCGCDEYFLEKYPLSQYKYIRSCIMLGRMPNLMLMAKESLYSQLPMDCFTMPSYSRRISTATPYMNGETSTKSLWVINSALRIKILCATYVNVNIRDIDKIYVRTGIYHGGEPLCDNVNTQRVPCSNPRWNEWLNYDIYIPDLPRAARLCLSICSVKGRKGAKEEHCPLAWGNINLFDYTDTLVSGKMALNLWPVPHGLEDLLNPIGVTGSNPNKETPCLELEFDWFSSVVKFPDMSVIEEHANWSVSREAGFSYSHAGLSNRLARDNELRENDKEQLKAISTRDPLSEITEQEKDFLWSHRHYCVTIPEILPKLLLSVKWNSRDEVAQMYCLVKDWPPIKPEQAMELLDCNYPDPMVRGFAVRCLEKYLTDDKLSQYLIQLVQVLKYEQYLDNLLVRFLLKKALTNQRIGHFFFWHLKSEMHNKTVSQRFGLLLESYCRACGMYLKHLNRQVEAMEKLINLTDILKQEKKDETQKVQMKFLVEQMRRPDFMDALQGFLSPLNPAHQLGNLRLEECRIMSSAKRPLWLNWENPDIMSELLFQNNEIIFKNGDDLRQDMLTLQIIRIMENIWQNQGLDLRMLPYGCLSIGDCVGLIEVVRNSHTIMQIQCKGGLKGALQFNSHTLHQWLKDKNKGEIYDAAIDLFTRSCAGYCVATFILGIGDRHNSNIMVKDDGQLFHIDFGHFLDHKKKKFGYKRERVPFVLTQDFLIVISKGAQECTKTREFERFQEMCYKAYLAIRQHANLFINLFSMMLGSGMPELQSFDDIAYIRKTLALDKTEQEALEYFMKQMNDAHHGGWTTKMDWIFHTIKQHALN

Structure (SMILES)	IC50 [nM]
CNC(=O)N1CCC(n2c(=O)n(C)c3cnc4ccc(-c5ccc(C)nc5)nc4c32)CC1	59.4
CN(C)c1ccc(-c2ccc3ncc4c(c3n2)n(C2CCN(C(=O)CO)CC2)c(=O)n4C)cn1	6.23
COc1ncc(-c2ccc3ncc4[nH]c(=O)n(-c5ccc(C(C)(C)C#N)cc5)c4c3n2)cn1	43.9
CNC(=O)N1CCC(n2c(=O)n(C)c3cnc4ccc(-c5cnc(OC)nc5)nc4c32)CC1	68.1
COc1cccc(-c2ccc3ncc4c(c3n2)n(C2CCN(C(C)=O)CC2)c(=O)n4C)c1	57.7
CCC(=O)N1CCC(n2c(=O)n(C)c3cnc4ccc(-c5cnc6ccccc6c5)nc4c32)CC1	7.86
COc1ncc(-c2ccc3ncc4c(c3n2)n(C2CCN(C(C)=O)CC2)c(=O)n4C)cn1	34.6
Cn1c(=O)n([C@H]2CC[C@H](N)CC2)c2c3nc(-c4cnc5ccccc5c4)ccc3ncc21	46.4
COc1ccc(-c2ccc3ncc4c(c3n2)n([C@H](C)CO)c(=O)n4C)cn1	237
Cn1c(=O)n([C@H]2CC[C@H](O)CC2)c2c3nc(-c4cnc5ccccc5c4)ccc3ncc21	5.21
Cc1ccc(-c2ccc3ncc4c(c3n2)n(C2CCN(CCO)CC2)c(=O)n4C)cn1	35.6
C[C@H](CO)n1c(=O)n(C)c2cnc3ccc(-c4cccc5[nH]ccc45)nc3c21	55.3
Cn1cc(-c2ccc3ncc4c(c3n2)n(-c2ccc(C(C)(C)C#N)cc2)c(=O)n4C)cn1	116
COc1ncc(-c2ccc3ncc4c(c3n2)n(C2CCN(CC(=O)N(C)C)CC2)c(=O)n4C)cn1	37
O=c1[nH]c2cnc3ccc(-c4cnc5ccccc5c4)nc3c2n1C1CCNCC1	353
Cn1c(=O)n(C2CCN(C(=O)C(C)(C)O)CC2)c2c3nc(-c4cnc5ccccc5c4)ccc3ncc21	28
Cc1ccc(-c2ccc3ncc4c(c3n2)n(C2CCN(c3ncccn3)CC2)c(=O)n4C)cn1	41.4
Cn1c(=O)n(C2CCOCC2)c2c3nc(-c4cnn(CCO)c4)ccc3ncc21	579
COC(=O)N1CCC(n2c(=O)n(C)c3cnc4ccc(-c5cnc6ccccc6c5)nc4c32)CC1	8.07
O=C(OCc1ccccc1)N1CCC(n2c(=O)[nH]c3cnc4ccc(-c5cnc6ccccc6c5)nc4c32)CC1	32.2
Cn1c(=O)n(C2CCN(C(=O)OCc3ccccc3)CC2)c2c3nc(-c4cnc5ccccc5c4)ccc3ncc21	13.4
Cn1c(=O)n([C@H]2CC[C@H](O)CC2)c2c3nc(-c4cnc(N)nc4)ccc3ncc21	3.36
COc1ncc(-c2ccc3ncc4c(c3n2)n([C@H]2CC[C@H](C(N)=O)CC2)c(=O)n4C)cn1	45.6

Structure (SMILES)	IC50 [nM]
COc1ccc(-c2ccc3ncc4c(c3n2)n(C2CCN(CC(N)=O)CC2)c(=O)n4C)cn1	7.14
CC(=O)N1CCC(n2c(=O)n(C)c3cnc4ccc(-c5cccc6ncccc56)nc4c32)CC1	194
Cn1c(=O)n(C2CCN(C(=O)CO)CC2)c2c3nc(-c4cccc5[nH]ncc45)ccc3ncc21	60.4
Cc1ccc(-c2ccc3ncc4c(c3n2)n(C2CCN(CC(N)=O)CC2)c(=O)n4C)cn1	18.7
COc1ccc(-c2ccc3ncc4c(c3n2)n(C2CCN(C(C)=O)CC2)c(=O)n4C)cc1	11.3
CC(C)(C#N)c1ccc(-n2c(=O)[nH]c3cnc4ccc(-c5cnc6ccccc6c5)nc4c32)cc1	6.47
Cc1ccc(-c2ccc3ncc4c(c3n2)n(-c2ccc(C(C)(C)C#N)cc2)c(=O)n4C)cn1	24.4
COc1ncc(-c2ccc3ncc4[nH]c(=O)n(-c5ccc(C(C)(C)C#N)cc5)c4c3n2)cc1F	197
Cn1cc(-c2ccc3ncc4c(c3n2)n([C@H]2CC[C@H](C(N)=O)CC2)c(=O)n4C)cn1	224
CN(C)c1ccc(-c2ccc3ncc4c(c3n2)n(C2CCN(C(N)=O)CC2)c(=O)n4C)cn1	35.8
CC(=O)N1CCC(n2c(=O)n(C)c3cnc4ccc(-c5ccnc6[nH]ncc56)nc4c32)CC1	140
Cc1ccc(-c2ccc3ncc4c(c3n2)n(C2CCN(C(=O)CN)CC2)c(=O)n4C)cn1	68.9
Cn1c(=O)n([C@H]2CC[C@H](O)CC2)c2c3nc(-c4cn[nH]c4)ccc3ncc21	19.7
COc1ccc(-c2ccc3ncc4c(c3n2)n(C2CCN(C(=O)CN(C)C)CC2)c(=O)n4C)cn1	14.4
Cc1ccc(-c2ccc3ncc4c(c3n2)n(C2CCNCC2)c(=O)n4C)cn1	101
CN(C)c1ccc(-c2ccc3ncc4c(c3n2)n(C2CCOCC2)c(=O)n4C)cn1	29
Cc1ccc(-c2ccc3ncc4c(c3n2)n(C2CCOCC2)c(=O)n4C)cn1	27.3
CN(C)c1ccc(-c2ccc3ncc4c(c3n2)n([C@H]2CC[C@H](OCCO)CC2)c(=O)n4C)cn1	11.6
Cc1ccc(-c2ccc3ncc4c(c3n2)n([C@H]2CC[C@H](OCCO)CC2)c(=O)n4C)cn1	8.63
CN(C)CC(=O)N1CCC(n2c(=O)n(C)c3cnc4ccc(-c5cnc6ccccc6c5)nc4c32)CC1	18
COc1ncc(-c2ccc3ncc4c(c3n2)n(C2CCN(C(=O)CN)CC2)c(=O)n4C)cn1	184
CNC(=O)N1CCC(n2c(=O)n(C)c3cnc4ccc(-c5cnc6ccccc6c5)nc4c32)CC1	7.34
COc1ncc(-c2ccc3ncc4c(c3n2)n([C@H]2CC[C@H](OCCO)CC2)c(=O)n4C)cn1	26.3

Structure (SMILES)	IC50 [nM]
COCCN1CCC(n2c(=O)n(C)c3cnc4ccc(-c5ccc(N(C)C)nc5)nc4c32)CC1	31.8
Cn1cc(-c2ccc3ncc4c(c3n2)n([C@H]2CC[C@H](O)CC2)c(=O)n4C)cn1	107
CN(C)c1ccc(-c2ccc3ncc4c(c3n2)n(C2CCN(C(=O)C(C)(C)O)CC2)c(=O)n4C)cn1	6.69
CC(C)OC(=O)N1CCC(n2c(=O)n(C)c3cnc4ccc(-c5cnc6ccccc6c5)nc4c32)CC1	19.6
CNC(=O)N1CCC(n2c(=O)n(C)c3cnc4ccc(-c5ccc(OC)nc5)nc4c32)CC1	9.19
COc1ccc(-c2ccc3ncc4[nH]c(=O)n(Cc5ccccc5)c4c3n2)cn1	24.5
COc1ncc(-c2ccc3ncc4c(c3n2)n(C2CCN(C(=O)[C@H](C)O)CC2)c(=O)n4C)cn1	34.2
COc1ncc(-c2ccc3ncc4c(c3n2)n(-c2ccc(C(C)(C)C#N)cc2)c(=O)n4C)cc1F	90.7
Cn1c(=O)n([C@H]2CC[C@H](OCCO)CC2)c2c3nc(-c4cnc5ccccc5c4)ccc3ncc21	10.7
COc1ncc(-c2ccc3ncc4c(c3n2)n(C2CCNCC2)c(=O)n4C)cn1	333
CN(C)C(=O)CN1CCC(n2c(=O)n(C)c3cnc4ccc(-c5cnn(C)c5)nc4c32)CC1	248
CN1CCC(n2c(=O)n(C)c3cnc4ccc(-c5cnc6[nH]ncc6c5)nc4c32)CC1	21.8
Cc1ccc(-c2ccc3ncc4c(c3n2)n(C2CCOCC2)c(=O)n4CCO)cn1	428
Cn1cc(-c2ccc3ncc4c(c3n2)n(C2CCN(CC(N)=O)CC2)c(=O)n4C)cn1	232
CN(C)c1ccc(-c2ccc3ncc4c(c3n2)n(-c2ccc(C(C)(C)C#N)cc2)c(=O)n4C)cn1	30.9
Cn1c(=O)n([C@H]2CC[C@H](O)CC2)c2c3nc(-c4cccc5[nH]ccc45)ccc3ncc21	9.61
COc1cccc(-c2ccc3ncc4c(c3n2)n(C2CCN(C(=O)CO)CC2)c(=O)n4C)c1	30.4
COc1ccc(-c2ccc3ncc4[nH]c(=O)n([C@H]5CC[C@H](O)CC5)c4c3n2)cn1	46.8
Cc1ccc(-c2ccc3ncc4c(c3n2)n(C2CCN(C(=O)CN(C)C)CC2)c(=O)n4C)cn1	42.7
Cc1ccc(-c2ccc3ncc4c(c3n2)n([C@H]2CC[C@H](O)CC2)c(=O)n4C)cn1	18.5
COCC(=O)N1CCC(n2c(=O)n(C)c3cnc4ccc(-c5cnc6[nH]ncc6c5)nc4c32)CC1	15.3
C[C@H](CO)n1c(=O)n(C)c2cnc3ccc(-c4cnc(N)nc4)nc3c21	331
Cn1c(=O)n([C@H]2CC[C@H](O)CC2)c2c3nc(-c4cc[nH]n4)ccc3ncc21	264

Structure (SMILES)	IC50 [nM]
COc1ncc(-c2ccc3ncc4c(c3n2)n(C2CCOCC2)c(=O)n4C)cn1	98.9
CCN1CCC(n2c(=O)n(C)c3cnc4ccc(-c5cnc6ccccc6c5)nc4c32)CC1	11.7
Cn1c(=O)n(C2CCN(C(=O)CO)CC2)c2c3nc(-c4cnc5[nH]ncc5c4)ccc3ncc21	59.4
CN1CCC(n2c(=O)n(C)c3cnc4ccc(-c5cnc6ccccc6c5)nc4c32)CC1	11.7
CCNC(=O)Nc1ccc(-c2ccc3ncc4c(c3n2)n(C2CCN(C(=O)OC(C)(C)C)CC2)c(=O)n4C)cc1	39.9
Cn1c(=O)n(C2CCN(CC(F)(F)F)CC2)c2c3nc(-c4cnc5ccccc5c4)ccc3ncc21	14.8
Cn1c(=O)n(C2CCN(C(=O)C(C)(C)O)CC2)c2c3nc(-c4cnc5[nH]ncc5c4)ccc3ncc21	9.91
CNC(=O)N1CCC(n2c(=O)n(C)c3cnc4ccc(-c5ccc(N(C)C)nc5)nc4c32)CC1	24.3
COc1ncc(-c2ccc3ncc4c(c3n2)n(C2CCN(C)CC2)c(=O)n4C)cn1	159
COc1ncc(-c2ccc3ncc4c(c3n2)n(C2CCN(C(=O)CO)CC2)c(=O)n4C)cn1	27.2
CC(=O)N1CCC(n2c(=O)n(C)c3cnc4ccc(-c5cnn(C)c5)nc4c32)CC1	133
C[C@@H](CO)n1c(=O)n(C)c2cnc3ccc(-c4cnn(C)c4)nc3c21	5040
CC(=O)N1CCC(n2c(=O)n(C)c3cnc4ccc(-c5ccc(N)nc5)nc4c32)CC1	9.17
COc1ncc(-c2ccc3ncc4c(c3n2)n(C2CCN(CCO)CC2)c(=O)n4C)cn1	124
CC(=O)N1CCC(n2c(=O)n(C)c3cnc4ccc(-c5ccc(N(C)C)nc5)nc4c32)CC1	17.2
COc1ncc(-c2ccc3ncc4c(c3n2)n(-c2ccc(C(C)(C)C#N)cc2)c(=O)n4C)cn1	27.2
C[C@@H](O)C(=O)N1CCC(n2c(=O)n(C)c3cnc4ccc(-c5cnc6[nH]ncc6c5)nc4c32)CC1	29.4
Cn1cc(-c2ccc3ncc4c(c3n2)n(C2CCOCC2)c(=O)n4C)cn1	71.8
Cn1cc(-c2ccc3ncc4c(c3n2)n(C2CCN(C(=O)C(C)(C)O)CC2)c(=O)n4C)cn1	30.4
C[C@@H](O)C(=O)N1CCC(n2c(=O)n(C)c3cnc4ccc(-c5ccc(N(C)C)nc5)nc4c32)CC1	5.53
COc1ccc(-c2ccc3ncc4c(c3n2)n(CCN2CCNCC2)c(=O)n4C)cn1	344
Cn1c(=O)n(C2CCOCC2)c2c3nc(-c4cn[nH]c4)ccc3ncc21	18.3
